In patent US9018206B2, “Carboxamide compounds and their use as calpain inhibitors” (AbbVie Deutschland GmbH & Co. KG, priority 2009, dated 2015):
pKi: −log10 of the molar value.

Tests used:
[1] = target: T1, calpain-I isolated from human erythrocytes (Homo sapiens, UniProt P07384); experiment: Calpain I enzyme inhibition in vitro (kinetic fluorescence assay); format: biochemical; conditions: apparent Ki from IC50 (Cheng-Prussoff); 20 nM calpain-I, 100 μM Suc-Leu-Tyr-AMC, pH 7.3, room temperature
T1 construct: calpain-I—isolated from human erythrocytes; purchased Calbiochem 208713; host or cells: human erythrocytes (tissue-derived)
T1 sequence (P07384 1-714): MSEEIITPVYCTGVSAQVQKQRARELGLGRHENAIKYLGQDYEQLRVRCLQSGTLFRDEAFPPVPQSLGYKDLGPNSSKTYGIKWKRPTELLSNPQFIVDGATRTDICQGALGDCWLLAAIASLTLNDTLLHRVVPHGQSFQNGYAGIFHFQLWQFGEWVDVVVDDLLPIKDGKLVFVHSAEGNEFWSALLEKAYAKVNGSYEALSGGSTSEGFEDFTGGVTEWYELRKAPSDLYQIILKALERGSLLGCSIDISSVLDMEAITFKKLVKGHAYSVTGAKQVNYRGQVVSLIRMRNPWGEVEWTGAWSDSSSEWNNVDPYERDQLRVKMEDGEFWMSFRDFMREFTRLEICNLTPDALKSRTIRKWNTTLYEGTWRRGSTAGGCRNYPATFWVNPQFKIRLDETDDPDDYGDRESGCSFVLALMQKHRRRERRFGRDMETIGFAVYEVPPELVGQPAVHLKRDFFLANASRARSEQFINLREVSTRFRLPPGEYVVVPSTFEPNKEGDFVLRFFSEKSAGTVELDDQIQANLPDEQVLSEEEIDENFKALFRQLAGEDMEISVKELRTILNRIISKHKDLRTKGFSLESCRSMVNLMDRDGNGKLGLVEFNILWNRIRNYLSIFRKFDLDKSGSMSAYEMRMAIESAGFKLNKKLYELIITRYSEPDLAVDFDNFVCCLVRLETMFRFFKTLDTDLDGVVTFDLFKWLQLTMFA
T1 sequence (P04632 1-268 partner): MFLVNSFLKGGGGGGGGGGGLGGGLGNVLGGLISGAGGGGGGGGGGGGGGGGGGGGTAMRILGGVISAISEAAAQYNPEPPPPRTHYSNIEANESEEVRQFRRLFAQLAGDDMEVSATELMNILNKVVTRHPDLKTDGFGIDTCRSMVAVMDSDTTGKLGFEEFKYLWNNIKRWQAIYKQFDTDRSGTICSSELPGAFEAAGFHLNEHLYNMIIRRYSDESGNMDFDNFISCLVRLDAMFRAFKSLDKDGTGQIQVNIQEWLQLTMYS
Procedure, shortened: (§1)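 Kinetic AMC fluorescence (ex 390/em 460 nm), room temperature. Calpain-I 20 nM, 100 μM Suc-Leu-Tyr-AMC, imidazole/CaCl2 pH 7.3; cathepsins B 0.25 nM/100 μM Z-Phe-Arg-AMC, K 3 nM/10 μM Z-Gly-Pro-Arg-AMC, S 0.5 nM/20 μM Z-Val-Val-Arg-AMC, each MES/EDTA/cysteine pH 6.0. Ki from IC50 via Cheng-Prusoff, averaging 2–4 curves.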

[2] = target: T2, cathepsin B isolated from human liver (Homo sapiens, UniProt P07858); experiment: Cathepsin B enzyme inhibition in vitro (kinetic fluorescence assay); format: biochemical; conditions: Ki(cathepsin B)/Ki(calpain) ratio
T2 construct: cathepsin B—isolated from human liver; purchased Calbiochem 219362; host or cells: human liver (tissue-derived)
Procedure, shortened: as §1

[3] = target: T3, cathepsin K activated from recombinant human procathepsin K (Homo sapiens, UniProt P43235); experiment: Cathepsin K enzyme inhibition in vitro (kinetic fluorescence assay); format: biochemical; conditions: Ki(cathepsin K)/Ki(calpain) ratio
T3 construct: purchased Calbiochem 342001; host or cells: E. coli
T3 sequence (P43235 115-329): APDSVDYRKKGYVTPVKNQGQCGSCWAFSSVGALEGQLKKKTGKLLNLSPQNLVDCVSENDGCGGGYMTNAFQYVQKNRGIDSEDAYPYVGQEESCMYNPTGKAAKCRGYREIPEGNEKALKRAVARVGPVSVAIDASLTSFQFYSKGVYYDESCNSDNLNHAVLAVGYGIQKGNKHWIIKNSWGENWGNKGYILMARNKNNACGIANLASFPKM
Procedure, shortened: as §1

[4] = target: T4, cathepsin L isolated from human liver (Homo sapiens, UniProt P07711); experiment: Cathepsin L enzyme inhibition in vitro (kinetic fluorescence assay); format: biochemical; conditions: Ki(cathepsin L)/Ki(calpain) ratio
T4 construct: cathepsin L—isolated from human liver; purchased Calbiochem 219402; host or cells: human liver (tissue-derived)
T4 sequence (P07711 114-333): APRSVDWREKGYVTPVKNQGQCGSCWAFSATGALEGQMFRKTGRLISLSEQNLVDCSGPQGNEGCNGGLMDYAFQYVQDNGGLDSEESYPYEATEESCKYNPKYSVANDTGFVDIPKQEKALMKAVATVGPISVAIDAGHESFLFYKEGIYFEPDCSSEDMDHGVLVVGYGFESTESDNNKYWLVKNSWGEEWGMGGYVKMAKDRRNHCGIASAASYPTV
Procedure, shortened: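 Inhibition of cathepsin L isolated from human liver was measured by kinetic fluorescence (excitation 390 nm, emission 460 nm) using 1 nM enzyme and 2 μM Z-Phe-Arg-AMC substrate (Km 2 μM) in 50 mM MES, 2 mM EDTA, 0.05% Brij 35, 2.5 mM L-cysteine, pH 6.0, at room temperature. Apparent Ki values came from IC50 values via the Cheng-Prussoff relation, averaged over 2 to 4 dose-effect plots.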

[5] = target: T5, recombinant human cathepsin S (Homo sapiens, UniProt P25774); experiment: Cathepsin S enzyme inhibition in vitro (kinetic fluorescence assay); format: biochemical; conditions: Ki(cathepsin S)/Ki(calpain) ratio
T5 construct: purchased Calbiochem 219343; host or cells: E. coli
T5 sequence (P25774 115-331): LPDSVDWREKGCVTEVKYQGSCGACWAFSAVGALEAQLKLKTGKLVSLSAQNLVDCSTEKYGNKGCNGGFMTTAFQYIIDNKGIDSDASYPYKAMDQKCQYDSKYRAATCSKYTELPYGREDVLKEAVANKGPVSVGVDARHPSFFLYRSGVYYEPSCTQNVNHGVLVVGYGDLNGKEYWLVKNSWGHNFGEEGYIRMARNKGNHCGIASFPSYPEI
Procedure, shortened: as §1

[6] = Assay for determining cytosolic clearance, human liver cytosol; format: in vitro ADME; conditions: 0.5 μM compound, 1 mg/ml human liver cytosol, 37° C., pH 7.5
Description: (§2) For comparison purposes data measured with human liver cytosol were contrasted with those obtained with cynomolgus monkey liver cytosol.
(§3) 0.5 μM of a compound to be tested was incubated with 1 mg/ml of human liver cytosol as well as monkey liver cytosol at 37° C. in 0.5 M of phosphate buffer at pH 7.5 while shaking (commercial sources: female cynomolgus liver cytosol from Tebu bio, human liver cytosol from BDgentest).
(§4) In each case aliquots of 65 μl were taken after 0, 5, 10 and 15 min and transferred into wells of a wellplate which were immediately filled with 130 μl of ethanol to stop the reaction. The samples were kept frozen until analysis on a LC/MS/MS system (Applied Biosystems SCIEX 4000).
(§5) Read out parameters were the loss of parent compounds, from which the half life periods (T1/2) were calculated from.
(§6) To assess the stability of the compounds tested the clearance ranges were adjusted to the hepatic plasma flow of the different species according to the following scheme:
(§7) stable=from 0 to about ⅓ of the hepatic plasma flow;
(§8) moderately stable=from about ⅓ to about ⅔ of the hepatic plasma flow;
(§9) instable=more than ⅔ of the hepatic plasma flow.
(§10) Based on this adjustment the following qualifiers were assigned to evaluate the cytosolic stabilities of the compounds tested: […]

[7] = Assay for determining cytosolic clearance, cynomolgus monkey liver cytosol; format: in vitro ADME; conditions: 0.5 μM compound, 1 mg/ml cynomolgus monkey liver cytosol, 37° C., pH 7.5
Description: as §2, §3, §4, §5, §6, §7, §8, §9, §10

| pKi [1] | Sel cat. S [5] | human cytCL [6] | cyno cytCL [7] | SMILES | Sel cat. B [2] | Sel cat. K [3] | Sel cat. L [4] |
| --- | --- | --- | --- | --- | --- | --- | --- |
| 6.22 to 7.00 | ++ (30<Ki(cathepsin B)/Ki(calpain)≦100) | ++ (0-14 μl/min/mg) | ++ (0-18 μl/min/mg) | CCNC(=O)C(=O)C(Cc1ccccc1)NC(=O)[C@H]1CCC(=O)N1Cc1ccccc1 (stereo partly drawn) [Example 21, (2R)-1-Benzyl-N-[4-(ethylamino)-3,4-dioxo-1-phenylbutan-2-yl]-5-oxopyrrolidine-2-carboxamide] | +++ (Ki(cathepsin B)/Ki(calpain) ratio of >30) | +++ (Ki(cathepsin K)/Ki(calpain) ratio of >30) | +++ (Ki(cathepsin L)/Ki(calpain) ratio of >30) |
| 6.22 to 7.00 | ++ (30<Ki(cathepsin B)/Ki(calpain)≦100) | ++ (0-14 μl/min/mg) | ++ (0-18 μl/min/mg) | CC(C)CNC(=O)C(=O)C(Cc1ccccc1)NC(=O)[C@H]1CCC(=O)N1Cc1ccccc1 (mixture of isomers) [Example 28, (2R)-1-Benzyl-N-(4-(isobutylamino)-3,4-dioxo-1-phenylbutan-2-yl)-5-oxopyrrolidine-2-carboxamide] | +++ (Ki(cathepsin B)/Ki(calpain) ratio of >30) | +++ (Ki(cathepsin K)/Ki(calpain) ratio of >30) | +++ (Ki(cathepsin L)/Ki(calpain) ratio of >30) |
